Test results: patent US20240216476A1, “COMBINATION OF BITTER RECEPTOR AGONIST AND GUT-SIGNALING COMPOUND” (AARDVARK THERAPEUTICS, INC., priority 2021, published 2024)
Read-outs that look alike come from different tables or passages of the source. Marks after values point to notes of the source that are not given here.

Columns and labels:
[1] = cited from earlier work; for Effect on Body Weight (placebo-adjusted change from baseline) / Effect on HbA1c (placebo-adjusted change from baseline) / Effect on Body Weight (placebo-adjusted change from baseline), percent: QD 24-26 weeks; for TC level change from baseline / LDL level change from baseline: placebo +2%; for HDL level change from baseline: placebo +1%
ob/ob mice = conditions: cited from earlier work
[2] = system: C57Bl/6J mice fed with high-fat diet; conditions: alogliptin 0.03% (wt/wt) in diet for life span, cited from earlier work; for Control-adjusted Percent Change in Body Weight Gain / Control-adjusted Percent Change in Fasting Blood Glucose / Control-adjusted Percent Change in Insulin Level: sitagliptin 0.004% in diet 12 weeks; for Control-adjusted Percent Change in Body Weight Gain / Control-adjusted Percent Change in Fasting Blood Glucose / Control-adjusted Percent Change in Insulin Level / Control-adjusted Percent Change in Lipid Levels: TC / Control-adjusted Percent Change in Lipid Levels: TG: vildagliptin 30 mg/kg/day 7 weeks
NASH in vivo models [3] = experiment: NASH in vivo models, summary and comparison of data from multiple studies (Table 15; first row Aardvark Therapeutics, PCT/US2022/014550); conditions: Male C57BL/6 mice fed AMLN diet for 48 weeks; 30 mg/kg, PO, QD for 48 weeks
From the text: FIGS. 23 through 33B show data from this Example 6, which is further described above under the heading, Brief Description of the Figures. A summary and comparison of NASH in vivo data from multiple studies is shown below in Table 15. [table] […] This makes it difficult to do direct comparisons of the data. The study corresponding to the first row (called Aardvark Therapeutics) is provided in PCT Patent application PCT/US2022/014550, filed Jan. 31, 2022.

[4] = system: AMLN-diet induced mice (fatty liver disease/NASH model); assay type: in vivo; conditions: in words
From the text: This Example provides the results obtained from an in vivo mouse model of fatty liver disease treatment to investigate the therapeutic effect of DA on the treatment of NASH versus positive control semaglutide (a GLP-1 agonist marketed drug for lowering HbA1c). This study used a positive control semaglutide, a vehicle control, study drug DA and a combination of semaglutide and DA. Mouse strain (B6 mice) was used, and the animals were already adults (23 weeks old) when the study began because the animals were already fed an AMLN diet for 17 weeks prior to the study being initiated. The study dose began at 75 mg/kg BID.
The study included 3 groups of 10 mice each, (A) vehicle control with distilled water by gavage BID, (B) DA by gavage BID, and (C) semaglutide […] sc QD. Body weights and changes were measured 3× per week. Serum metabolic markers (blood glucose, blood insulin, HbA1c, HDL, LDL triglycerides and bile acids) were measured at beginning of dosing (baseline) and end of study. At the end of the study, histopathology of liver samples and serum levels of inflammatory biomarkers (IL-6, TNFα, CK-18 and TGF-β) were evaluated. Histopathology was performed blindly with a scoring scale according to NAFLD Activity Score and Fibrosis Score according to Table 13. Table 14 identifies the kits and equipment used to measure serum parameters.

C57BL/6 mice fed on HFD = conditions: end of study, cited from earlier work
NASH in vivo models [5] = conditions: Male C57BL/6J mice fed AMLN diet for 32 weeks, 10 nmol/kg, SC for 12 weeks, cited from earlier work
[6] = in vivo; cited from earlier work
[7] = cited from earlier work; for percentage of patients in whom NASH resolution was achieved with no worsening of fibrosis: placebo 17%
[8] = semaglutide 3 mg, sitagliptin 100 mg, saxagliptin 2.5 mg, vildagliptin 50 mg, alogliptin 12.5 mg, linagliptin 5 mg
[9] = semaglutide 7 mg, sitagliptin 200 mg, saxagliptin 5 mg, vildagliptin 100 mg, alogliptin 25 mg
[10] = sitagliptin 0.0018% in diet 12 weeks, alogliptin 42.2 mg/kg/day 28 days
[11] = exenatide 24 nmol/kg QD IP 4 weeks, dulaglutide 0.6 mg/kg once weekly IP 12 weeks, liraglutide 0.3 mg/kg QD SC 38 days, semaglutide 25 nmol/kg every two days SC 3 weeks
[12] = exenatide 24 nmol/kg QD IP 4 weeks, semaglutide 25 nmol/kg every two days SC 3 weeks
[13] = semaglutide 25 nmol/kg every two days SC 3 weeks
[14] = semaglutide 3 mg, sitagliptin 100 mg, saxagliptin 2.5 mg, vildagliptin 50 mg
[15] = semaglutide 7 mg, sitagliptin 200 mg, saxagliptin 5 mg, vildagliptin 100 mg
[16] = semaglutide 14 mg, saxagliptin 10 mg
[17] = exenatide 24 nmol/kg QD IP 4 weeks, dulaglutide 0.6 mg/kg once weekly IP 12 weeks, liraglutide 0.3 mg/kg QD SC 38 days
[18] = vildagliptin 1.9 mg/kg BID 33 days
[19] = vildagliptin 6.3 mg/kg BID 33 days

Cn1c(=O)cc(N2CCC[C@@H](N)C2)n(Cc2ccccc2C#N)c1=O [Alogliptin]
HDL (mg/dL) ([1]; alogliptin 12.5 mg QD 26 weeks, placebo +1.3): HDL (mg/dL): +0.9
LDL (mg/dL) ([1]; alogliptin 12.5 mg QD 26 weeks, placebo +4.6): LDL (mg/dL): −0.5
TC (mg/dL) ([1]; alogliptin 12.5 mg QD 26 weeks, placebo +10.1): TC (mg/dL): −1.2
TG (mg/dL) ([1]; alogliptin 12.5 mg QD 26 weeks, placebo +26.5): TG (mg/dL): −5.8
Effect on Body Weight (placebo-adjusted change from baseline) [1, 8]: 12.5 mg: −0.27 kg
Effect on HbA1c (placebo-adjusted change from baseline) [1, 8]: 12.5 mg: −0.54%
Effect on Body Weight (placebo-adjusted change from baseline) [1, 9]: 25 mg: −0.4 kg
Effect on HbA1c (placebo-adjusted change from baseline) [1, 9]: 25 mg: −0.57%
Control-adjusted Percent Change in HbA1c Level (ob/ob mice; alogliptin 42.2 mg/kg/day 28 days): −13%**
Control-adjusted Percent Change in Fasting Blood Glucose (ob/ob mice; [10]): −15.6%
Control-adjusted Percent Change in Insulin Level (ob/ob mice; [10]): +105%* *
Control-adjusted Percent Change in TG Level (ob/ob mice; [10]): −24.5%
Control-adjusted Percent Change in HbA1c Level [2]: −8.8%
Control-adjusted Percent Change in Lipid Levels: LDL [2]: −16.4% in LDL
Control-adjusted Percent Change in Body Weight Gain [2]: −32.6%*
Control-adjusted Percent Change in Fasting Blood Glucose [2]: −10.1%
Control-adjusted Percent Change in Insulin Level [2]: -47.9%*
Control-adjusted Percent Change in Lipid Levels: TC [2]: −1.1% in TC
Control-adjusted Percent Change in Lipid Levels: TG [2]: −19.2% in TG*

CC(=O)[O-].CC[N+](CC)(CC(=O)Nc1c(C)cccc1C)Cc1ccccc1 [DA or ARD-101]
serum level of ALT, change (NASH in vivo models [3]): ALT (−43%), AST
serum level of AST, change (NASH in vivo models [3]): (−9.5%), and bile acid
serum level of HbAlc, change (NASH in vivo models [3]): −6.7%
serum level of bile acid, change (NASH in vivo models [3]): (−16.2%)
serum level of fasting glucose, change (NASH in vivo models [3]): −9%
serum levels of GLP-1 and GLP-2 (NASH in vivo models [3]): Increased serum levels
serum levels of inflammatory markers (NASH in vivo models [3]): Lowered serum levels
steatosis and fibrosis on histopathology (NASH in vivo models [3]): Significantly improved

Semaglutide
NAFLD Activity Score based on blinded histopathologic review ([4]; 12 weeks, DA 75 then 50 mg/kg BID by gavage, semaglutide 10 mmol/kg sc QD): significantly improved NAFLD Activity Score
body weight and body weight change ([4]; 12 weeks, DA 75 then 50 mg/kg BID, semaglutide 10 mmol/kg sc QD): remarkable effect on body weight
HDLs ([4]; end of study): significantly decreased
LDLs ([4]; end of study): significantly decreased
TGs ([4]; end of study): significantly decreased
Control-adjusted Percent Change in Fasting Blood Glucose (C57BL/6 mice fed on HFD; [11]): −12.8%***
Control-adjusted Percent Change in Lipid Levels: TC (C57BL/6 mice fed on HFD; [12]): TC: −16.7%**
Control-adjusted Percent Change in Lipid Levels: TG (C57BL/6 mice fed on HFD; [12]): TG: −13.8%**
Absolute body weight percent change (C57BL/6 mice fed on HFD; [13]): −13.4%^##
Control-adjusted Percent Change in Lipid Levels: LDL (C57BL/6 mice fed on HFD; [13]): LDL: −9.3%*
TC level change from baseline ([1]; oral semaglutide 3 mg, 26-week trial product estimate from another clinical trial): from baseline: −3%
HDL level change from baseline ([1]; oral semaglutide 3 mg, 26-week): from baseline: 0%
LDL level change from baseline ([1]; oral semaglutide 3 mg, 26-week): from baseline: −4%
TG level change from baseline ([1]; oral semaglutide 3 mg, 26-week, placebo −2%): from baseline: −5%
HDL level change from baseline ([1]; oral semaglutide 7 mg, 26-week): (3 mg), −2%
LDL level change from baseline ([1]; oral semaglutide 7 mg, 26-week): (3 mg) ^$, −6%
TC level change from baseline ([1]; oral semaglutide 7 mg, 26-week): (3 mg) ^$$ −5%
TG level change from baseline ([1]; oral semaglutide 7 mg, 26-week, placebo −2%): (3 mg), −9%
Effect on Body Weight (placebo-adjusted change from baseline) [1, 8]: 3 mg: −0.2 kg
Effect on HbA1c (placebo-adjusted change from baseline) [1, 8]: 3 mg: −0.7%
Effect on Body Weight (placebo-adjusted change from baseline), percent [1, 14]: (−0.23%)
Effect on Body Weight (placebo-adjusted change from baseline) [1, 9]: 7 mg: −1.0 kg
Effect on HbA1c (placebo-adjusted change from baseline) [1, 9]: 7 mg: −1.2%
Effect on Body Weight (placebo-adjusted change from baseline), percent [1, 15]: (−1.1%)
Effect on Body Weight (placebo-adjusted change from baseline) [1, 16]: 14 mg: −2.6 kg
Effect on Body Weight (placebo-adjusted change from baseline), percent [1, 16]: (−3.0%)
Effect on HbA1c (placebo-adjusted change from baseline) [1, 16]: 14 mg: −1.4%
liver TG and total cholesterol levels, plasma ALT level, and liver content of fibrosis markers (NASH in vivo models [5]): Significantly decreased
liver weight and NAS overall score (NASH in vivo models [5]; significant): decreased liver weight
Incidence of Hypoglycemic Episodes for Combination with Insulin (vs. Placebo) [6]: 29.8%*
Incidence of Hypoglycemic Episodes for Monotherapy at the Highest Dose (vs. Placebo) [6]: 3.8%
percentage of patients in whom NASH resolution was achieved with no worsening of fibrosis ([7]; 0.1-mg group): 40%
percentage of patients in whom NASH resolution was achieved with no worsening of fibrosis ([7]; 0.2-mg group): 36%
mean percent weight loss ([7]; 0.4-mg group, placebo 1%): 13%
percentage of patients in whom NASH resolution was achieved with no worsening of fibrosis ([7]; 0.4-mg group): 59%
incidence of constipation ([7]; human, in vivo): 22%
incidence of nausea ([7]; human, in vivo): 42%
incidence of vomiting ([7]; human, in vivo): 15%
patients with malignant neoplasms ([7]; human, in vivo): 1%
patients with neoplasms (benign, malignant, or unspecified) ([7]; human, in vivo): 15%

Dulaglutide: fusion protein GLP-1 receptor agonist
Control-adjusted Percent Change in Insulin Level (C57BL/6 mice fed on HFD; dulaglutide 0.6 mg/kg once weekly IP 12 weeks, liraglutide 0.3 mg/kg QD SC 38 days): −77%*
Control-adjusted Body Weight Gain (C57BL/6 mice fed on HFD; [17]): -8.1 g
Control-adjusted Percent Change in Body Weight (C57BL/6 mice fed on HFD; [17]): −15.9%*
Control-adjusted Percent Change in Fasting Blood Glucose (C57BL/6 mice fed on HFD; [11]): −16.3%*
Incidence of Hypoglycemic Episodes for Combination with Insulin (vs. Placebo) [6]: 14.7%*
Incidence of Hypoglycemic Episodes for Combination with Metformin (vs. Placebo) [6]: 0.7%
Incidence of Hypoglycemic Episodes for Combination with a Sulfonylurea (vs. Placebo) [6]: 3.3%

N#C[C@@H]1CCCN1C(=O)CNC12CC3CC(CC(O)(C3)C1)C2 [Vildagliptin]
Effect on Body Weight (placebo-adjusted change from baseline) [1, 8]: 50 mg: +0.6 kg
Effect on HbA1c (placebo-adjusted change from baseline) [1, 8]: 50 mg: −0.7%
Effect on Body Weight (placebo-adjusted change from baseline), percent [1, 14]: (+0.65%)
Effect on Body Weight (placebo-adjusted change from baseline) [1, 9]: 100 mg: +1.2 kg
Effect on HbA1c (placebo-adjusted change from baseline) [1, 9]: 100 mg: −1.1%
Effect on Body Weight (placebo-adjusted change from baseline), percent [1, 15]: (+1.3%)
TG level change from baseline ([1]; vildagliptin 50 mg QD 24 weeks, placebo +19%): from baseline: +1%
TG level change from baseline ([1]; vildagliptin 100 mg QD 24 weeks, placebo +19%): (50 mg) ^$ and +5%
Other lipid parameters, change ([1]; vildagliptin, all treatment groups, no significant between-treatment differences): changed by <3%
Control-adjusted Percent Change in Fasting Blood Glucose (ob/ob mice; [18]): −29.4%
Control-adjusted Percent Change in TG Level (ob/ob mice; [18]): −29.3%
Control-adjusted Percent Change in Fasting Blood Glucose (ob/ob mice; [19]): −40.2%
Control-adjusted Percent Change in TG Level (ob/ob mice; [19]): −19.9%
Control-adjusted Percent Change in Body Weight Gain [2]: +11%
Control-adjusted Percent Change in Fasting Blood Glucose [2]: −15.1%*
Control-adjusted Percent Change in Insulin Level [2]: −33.2%
Control-adjusted Percent Change in Lipid Levels: TC [2]: −51.5% in TC*
Control-adjusted Percent Change in Lipid Levels: TG [2]: −23.6% in TG**
